Data on 23 compounds can be found in patent US9416115B2, “Fused heterocyclic compounds as ion channel modulators” (Gilead Sciences, Inc., priority 2013, dated 2016).

wild-type human cardiac sodium channel, hNav1.5, sequence (Q14524 whole entry): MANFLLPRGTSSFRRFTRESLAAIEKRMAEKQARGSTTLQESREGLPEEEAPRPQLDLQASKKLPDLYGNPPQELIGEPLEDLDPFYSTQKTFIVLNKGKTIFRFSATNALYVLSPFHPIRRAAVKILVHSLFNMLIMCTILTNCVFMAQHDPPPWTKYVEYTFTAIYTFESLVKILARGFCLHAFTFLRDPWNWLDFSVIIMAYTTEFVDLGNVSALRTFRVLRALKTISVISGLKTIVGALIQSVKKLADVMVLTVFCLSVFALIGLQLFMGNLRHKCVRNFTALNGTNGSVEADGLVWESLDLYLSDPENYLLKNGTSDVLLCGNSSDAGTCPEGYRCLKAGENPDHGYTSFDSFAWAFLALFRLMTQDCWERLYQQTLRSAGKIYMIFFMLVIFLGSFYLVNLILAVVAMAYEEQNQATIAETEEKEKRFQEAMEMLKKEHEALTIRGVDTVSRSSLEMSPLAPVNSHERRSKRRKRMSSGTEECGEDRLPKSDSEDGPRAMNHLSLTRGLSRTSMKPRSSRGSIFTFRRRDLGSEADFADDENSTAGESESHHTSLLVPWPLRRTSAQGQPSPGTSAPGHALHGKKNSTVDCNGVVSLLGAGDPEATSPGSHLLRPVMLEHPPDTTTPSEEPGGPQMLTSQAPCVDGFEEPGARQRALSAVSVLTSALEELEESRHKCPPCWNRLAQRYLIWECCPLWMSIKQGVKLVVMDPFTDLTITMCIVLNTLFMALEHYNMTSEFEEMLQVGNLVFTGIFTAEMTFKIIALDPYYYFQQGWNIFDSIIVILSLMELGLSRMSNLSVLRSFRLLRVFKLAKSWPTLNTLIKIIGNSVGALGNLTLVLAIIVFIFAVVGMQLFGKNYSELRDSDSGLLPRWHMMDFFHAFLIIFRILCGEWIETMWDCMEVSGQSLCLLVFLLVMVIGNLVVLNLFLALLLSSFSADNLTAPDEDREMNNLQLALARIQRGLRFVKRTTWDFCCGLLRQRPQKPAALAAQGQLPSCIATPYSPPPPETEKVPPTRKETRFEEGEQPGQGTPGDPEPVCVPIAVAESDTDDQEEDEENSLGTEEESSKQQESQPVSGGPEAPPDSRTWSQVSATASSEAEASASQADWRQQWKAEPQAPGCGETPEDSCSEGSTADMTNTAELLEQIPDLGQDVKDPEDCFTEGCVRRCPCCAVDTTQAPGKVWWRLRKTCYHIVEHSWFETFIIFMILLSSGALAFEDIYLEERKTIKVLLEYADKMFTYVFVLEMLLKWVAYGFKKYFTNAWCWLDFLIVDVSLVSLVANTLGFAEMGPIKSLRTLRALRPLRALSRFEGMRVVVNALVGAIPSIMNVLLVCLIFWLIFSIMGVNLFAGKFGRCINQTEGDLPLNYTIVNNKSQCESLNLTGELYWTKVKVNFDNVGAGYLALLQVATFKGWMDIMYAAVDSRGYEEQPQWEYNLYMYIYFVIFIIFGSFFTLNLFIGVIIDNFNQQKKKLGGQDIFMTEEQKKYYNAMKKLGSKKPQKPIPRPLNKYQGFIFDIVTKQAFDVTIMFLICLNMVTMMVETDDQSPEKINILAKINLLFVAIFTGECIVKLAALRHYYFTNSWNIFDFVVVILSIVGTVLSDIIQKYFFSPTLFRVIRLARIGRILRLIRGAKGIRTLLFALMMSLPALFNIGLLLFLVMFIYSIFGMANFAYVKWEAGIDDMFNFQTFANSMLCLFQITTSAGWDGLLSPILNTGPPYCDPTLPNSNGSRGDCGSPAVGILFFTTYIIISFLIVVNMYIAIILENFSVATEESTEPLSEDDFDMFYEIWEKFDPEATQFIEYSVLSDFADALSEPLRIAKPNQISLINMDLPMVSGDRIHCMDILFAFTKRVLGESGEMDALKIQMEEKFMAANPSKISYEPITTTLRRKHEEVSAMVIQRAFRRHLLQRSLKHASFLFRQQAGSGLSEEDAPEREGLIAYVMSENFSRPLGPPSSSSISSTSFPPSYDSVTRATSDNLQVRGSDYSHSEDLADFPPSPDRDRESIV

For this assay, the target named is wild-type human cardiac sodium channel, hNav1.5 (Homo sapiens, UniProt Q14524). Kind of assay: Late INa screening assay (QPatch whole cell patch clamp, Tefluthrin-induced late current). The conditions noted are these: 1 uM; HEK293 hNav1.5; percent block of late INa. In kind it is cell-based. The procedure:
The cardiac late sodium current (Late INa) and peak sodium current (Peak INa) assays are performed on an automated electrophysiology platform, QPatch 16X or QPatch HT (Sophion Bioscience, Copenhagen, Denmark) using the whole cell patch clamp technique to measure currents through the cell membrane. The assay uses an HEK293 (human embryonic kidney) cell line heterologously expressing the wild-type human cardiac sodium channel, hNav1.5, purchased from Millipore (Billerica, Mass.). No beta subunits were coexpressed with the Na channel alpha subunit. Cells are maintained with standard tissue culture procedures and stable channel expression is maintained with 400 μg/mL Geneticin in the culture medium. Experiments are carried out at 23-25° C.
For both the Late INa and Peak INa assays, series resistance compensation is set to 100% and series resistance and whole-cell compensation are performed automatically. Currents are digitized at 25 kHz and low-pass filtered at 5 kHz and stored in the Sophion Bioscience Oracle database (Sophion Bioscience, Copenhagen, Denmark). Analysis is performed using QPatch Assay software and data are compiled in Excel 2010 (Microsoft, Seattle, Wash., U.S.A.).
Compound stocks are routinely made by the Gilead Sample Bank in vials to 10 mM in dimethyl sulfoxide (DMSO). In some cases, when compounds are not soluble in DMSO, they are made in 100% ethanol. Stocks are sonicated as necessary. The extracellular solution for screening Late INa is composed of: 140 mM NaCl, 4 mM KCl, 1.8 mM CaCl2, 1 mM MgCl2, 10 mM HEPES and 10 mM Dextrose with pH adjusted to 7.35 using NaOH. The intracellular solution contains: 105 mM CsF, 20 mM CsCl, 10NaF, 2 mM EGTA, 10 mM HEPES and 10 mM Dextrose with pH adjusted to 7.35 with CsOH. Compounds are diluted in extracellular solution using a MicroLab Nimbus (Hamilton Robotics, Reno, Nev.) to between 0.3 and 3 μM in glass vials and transferred to glass well plates before robotic addition to the cells. The 0 mM Na extracellular solution (0Na-ECF) used at the end of each experiment for the Late INa and Peak INa assays to measure baseline current contains: 140 Choline-Cl; 4 mM KCl, 1.8 mM CaCl2; 1 mM MgCl2; 10 mM HEPES and 10 mM Dextrose with pH was adjusted to 7.35 with CsOH.
For the Late INa assay, sodium channels are activated every 10 seconds (0.1 Hz) by depolarizing the cell membrane to −20 mV for 250 milliseconds (ms) from a holding potential of −120 mV.
Compounds were tested to determine their activity in blocking the late sodium current. Late INa was generated by adding 10 μM Tefluthrin (pyrethroid) to the extracellular solution. For the purposes of the screening, Late INa is defined as the mean current between […] during the voltage step to −20 mV. After establishing the whole cell recording configuration, Late INa activator is added to each well 4 times over a 15 minute period so that the late component of the Na current reaches a stable value. Compounds were then added (typically at 0.3 or 1 μM), in the presence of the Late Na^+ activator, with 3 additions over the course of 5 minutes. Measurements were made at the end of exposure to the third compound addition and values were normalized to the current level when all Na^+ was removed from the extracellular solution after two additions of 0Na-ECF.
Results are reported as percent block of late INa and results were analyzed by incorporating rundown correction for the Late INa.
(In patch-clamp work, channel activity is measured electrically.)
With `COc1cc2onc(OCc3ncccn3)c2cc1-c1ccc(OC(F)(F)F)cc1` [Example 11, 6-methoxy-3-(pyrimidin-2-ylmethoxy)-5-(4-(trifluoromethoxy)phenyl)benzo[d]isoxazole], the inhibition (usually the share of the control response that was lost under treatment) at 1 µM was found to be 30%.
With `Cc1cc(-c2cccc(OC(F)(F)F)c2)cc2c(OCc3ncccn3)noc12` [Example 19, 7-methyl-3-(pyrimidin-2-ylmethoxy)-5-(3-(trifluoromethoxy)phenyl)benzo[d]isoxazole] the figure was 27.5%.
Turning to `c1cnc(COc2noc3ccc(-c4ccc(C5CC5)nc4)cc23)nc1` [Example 20, 5-(6-cyclopropylpyridin-3-yl)-3-(pyrimidin-2-ylmethoxy)benzo[d]isoxazole], the inhibition at 1 µM worked out at 28.8%.
To `Cc1cc(-c2cc3c(OCc4ncccn4)noc3cc2F)ccc1OC(F)(F)F` [Example 32, 6-fluoro-5-(3-methyl-4-(trifluoromethoxy)phenyl)-3-(pyrimidin-2-ylmethoxy)benzo[d]isoxazole] belongs 28.8%.
`Cc1cc(OC(F)(F)F)ccc1-c1cc2c(OCc3ncccn3)noc2cc1F` [Example 34, 6-fluoro-5-(2-methyl-4-(trifluoromethoxy)phenyl)-3-(pyrimidin-2-ylmethoxy)benzo[d]isoxazole] came in with an inhibition at 1 µM of 21%.
With `Cn1cnc(COc2noc3ccc(-c4ccc(OC(F)(F)F)cc4)cc23)c1` [Example 43, 3-((1-methyl-1H-imidazol-4-yl)methoxy)-5-(4-(trifluoromethoxy)phenyl)benzo[d]isoxazole] the figure was 27.1%.
For `Cc1nc(COc2noc3ccc(-c4ccc(OC(F)(F)F)cc4)cc23)c(C)o1` [Example 52, 3-((2,5-dimethyloxazol-4-yl)methoxy)-5-(4-(trifluoromethoxy)phenyl)benzo[d]isoxazole], the inhibition at 1 µM amounted to 24.3%.
With `N#CCC1(COc2noc3ccc(-c4ccc(OC(F)(F)F)cc4)cc23)CC1` [Example 54, 2-(1-(((5-(4-(trifluoromethoxy)phenyl)benzo[d]isoxazol-3-yl)oxy)methyl)cyclopropyl)acetonitrile], the inhibition at 1 µM is 29.2%.
To `O=C1CC[C@@H](COc2noc3ccc(-c4ccc(OC(F)(F)F)cc4)cc23)N1` [Example 62, (S)-5-(((5-(4-(trifluoromethoxy)phenyl)benzo[d]isoxazol-3-yl)oxy)methyl)pyrrolidin-2-one] belongs 28.4%; to `FC(F)(F)Oc1ccc(-c2ccc3onc(OCc4cnn(-c5ccccn5)c4)c3c2)cc1` [Example 65, 3-((1-(pyridin-2-yl)-1H-pyrazol-4-yl)methoxy)-5-(4-(trifluoromethoxy)phenyl)benzo[d]isoxazole], 27%; to `FC(F)(F)Oc1ccc(-c2ccc3onc(OCCc4ncc[nH]4)c3c2)cc1` [Example 66, 3-(2-(1H-imidazol-2-yl)ethoxy)-5-(4-(trifluoromethoxy)phenyl)benzo[d]isoxazole], 21.9%.
To `Cc1cc(C)n(CCOc2noc3ccc(-c4ccc(OC(F)(F)F)cc4)cc23)n1` [Example 69, 3-(2-(3,5-dimethyl-1H-pyrazol-1-yl)ethoxy)-5-(4-(trifluoromethoxy)phenyl)benzo[d]isoxazole] belongs 29.6%; to `FC(F)(F)Oc1ccc(-c2ccc3onc(OCc4nccc(N5CCOCC5)n4)c3c2)cc1` [Example 70, 3-((4-morpholinopyrimidin-2-yl)methoxy)-5-(4-(trifluoromethoxy)phenyl)benzo[d]isoxazole], 25.5%; to `FC(F)(F)Oc1ccc(-c2ccc3onc(OCc4cc5ccccc5cn4)c3c2)cc1` [Example 82, 3-(isoquinolin-3-ylmethoxy)-5-(4-(trifluoromethoxy)phenyl)benzo[d]isoxazole], 28.1%.
With `FC(F)(F)Oc1ccc(-c2ccc3onc(OCc4c[nH]nn4)c3c2)cc1` [Example 83, 3-((1H-1,2,3-triazol-4-yl)methoxy)-5-(4-(trifluoromethoxy)phenyl)benzo[d]isoxazole] the figure was 23.7%; with `Fc1cc(-c2ccc(OC(F)(F)F)cc2)cc2c(OCCn3cncn3)noc12` [Example 84, 3-(2-(1H-1,2,4-triazol-1-yl)ethoxy)-7-fluoro-5-(4-(trifluoromethoxy)phenyl)benzo[d]isoxazole], 23.6%.
As for `O=S1(=O)CCN(CCOc2noc3ccc(-c4ccc(OC(F)(F)F)cc4)cc23)CC1` [Example 85, 4-(2-((5-(4-(trifluoromethoxy)phenyl)benzo[d]isoxazol-3-yl)oxy)ethyl)thiomorpholine 1,1-dioxide], 1 µM produced 22.5% inhibition.
`FC(F)(F)Oc1ccc(-c2ccc3onc(OCc4nccc(C(F)(F)F)n4)c3c2)cc1` [Example 86, 5-(4-(trifluoromethoxy)phenyl)-3-((4-(trifluoromethyl)pyrimidin-2-yl)methoxy)benzo[d]isoxazole] displayed an inhibition at 1 µM of 21.9%.
To `COc1ccnc(COc2noc3c(C)cc(-c4ccc(OC(F)(F)F)cc4)cc23)n1` [Example 90, 3-((4-methoxypyrimidin-2-yl)methoxy)-7-methyl-5-(4-(trifluoromethoxy)phenyl)benzo[d]isoxazole] belongs 20.9%.
With `Cc1cccc(COc2noc3c(C)cc(-c4ccc(OC(F)(F)F)cc4)cc23)n1` [Example 106, 7-methyl-3-((6-methylpyridin-2-yl)methoxy)-5-(4-(trifluoromethoxy)phenyl)benzo[d]isoxazole] the figure was 28.3%; with `CC(C)Nc1noc2ccc(-c3ccc(OC(F)(F)F)cc3)cc12` [Example 131, N-isopropyl-5-(4-(trifluoromethoxy)phenyl)benzo[d]isoxazol-3-amine], 24.8%; with `O=C1CC[C@H](CNc2noc3ccc(-c4ccc(OC(F)(F)F)cc4)cc23)N1` [Example 134, (R)-5-(((5-(4-(trifluoromethoxy)phenyl)benzo[d]isoxazol-3-yl)amino)methyl)pyrrolidin-2-one], 21.1%.
To `Cc1nccn1-c1noc2ccc(-c3ccc(OC(F)(F)F)cc3)cc12` [Example 138, 3-(2-methyl-1H-imidazol-1-yl)-5-(4-(trifluoromethoxy)phenyl)benzo[d]isoxazole] belongs 29.8%.
